Measurements from patent publication US20240148714A1, “Triple Negative Breast Cancer Treatment Method” (Exelixis, Inc., priority 2016, published 2024).
Entries after “also recorded” stand apart in the source; their conditions may differ.

Tested on: circulating mononuclear cells
Assay: Circulating cell biomarkers by flow cytometry in serial blood samples
Assay type: in vivo, human
Description: Experimental design: In this single-arm, two-stage phase 2 study, patients with metastatic TNBC with measurable disease by RECIST and up to 3 lines of prior chemotherapy for metastatic disease received cabozantinib 60 mg daily on a 21-day cycle. Patients were restaged 6 weeks following treatment initiation and every 9 weeks thereafter. The primary endpoint was objective response rate (ORR). Predefined secondary endpoints included progression free survival (PFS) and toxicity. Here, we examined cellular biomarkers using flow cytometry in serial blood samples collected at days 0 (baseline/pre-treatment), 8, 22, 43, and 64 of cabozantinib treatment. Mixed effect models were used to evaluate the changes of biomarker levels over time from baseline to day 64. Wilcoxon signed rank test were used to evaluate whether the change of biomarker levels from baseline to day 8 were different by clinical benefit. Adjusted p-values controlling false discovery rate were used to adjust for multiple comparisons.
The primary endpoint was the activity of cabozantinib, as defined by objective response rate (ORR) in patients with mTNBC. Predefined secondary endpoints included progression-free survival (PFS), toxicity, and pain. Correlative studies included analysis of MET and phospho-MET expression in archival tumor tissue, and molecular and cellular biomarkers of cabozantinib. Cellular biomarkers were examined using flow cytometry in serial blood samples collected at days 0 (baseline/pre-treatment), 8, 22, 43, and 64 of cabozantinib treatment. Mixed effect models were used to evaluate the changes of biomarker levels over time from baseline to day 64. Wilcoxon signed rank test were used to evaluate whether the change of biomarker levels from baseline to day 8 were different by clinical benefit. Adjusted p-values controlling false discovery rate were used to adjust for multiple comparisons.
Circulating Biomarker Assays: Potential biomarkers of cabozantinib activity were identified by measuring plasma proteins at baseline, on day 8 of therapy, on day 1 of each cycle of therapy, and, if available, at the time of progression. Eight milliliters of blood was collected in purple top (plasma EDTA) vacutainers and shipped on wet ice to a Clinical Laboratory Improvement Amendments-certified core in the Steele Laboratories (Massachusetts General Hospital), where whole blood was separated by centrifugation into cellular fraction and plasma. The fraction of stem/progenitor cell, lymphocyte, and myeloid populations of total circulating mononuclear cells were counted by flow cytometry using a LSR-II cytometer and FACSDiva software in fresh blood samples using the following markers: CD3, CD4, CD8, CD14, CD25, CD34, CD45, CD56, CD127, and CD133 (Becton Dickinson, Franklin Lakes, NJ, www.bd.com). Plasma was prepared in the standard fashion and stored at −78° C. until collection and analysis of all samples. The biomarkers measured included VEGF, placental growth factor (PlGF), VEGF-C, VEGF-D, soluble VEGFR1 (sVEGFR1), basic fibroblast growth factor (bFGF), and sTie-2 (using a 7-plex Growth Factor array) and granulocyte-macrophage colony stimulating factor (GM-CSF), interferon gamma (IFN-g), tumor necrosis factor alpha (TNF-a), and interleukin-1beta (IL-1b), IL-2, IL-6, IL-8, IL-10, and IL-12 heterodimer p70 (using a 9-plex Inflammatory Factor array; both Meso Scale Discovery, Gaithersburg, MD, www.mesoscale.com); and HGF, sMET, carbonic anhydrase IX (CAIX), stromal cell-derived factor 1 a (SDF1a), and sVEGFR2 by single analyte enzyme-linked immunosorbent assay (R&D Systems, Minneapolis, MN, www.rndsystems.com).
Descriptive statistics were used to summarize biomarker values at protocol-specific time points. […] The Wilcoxon signed rank test assessed biomarker change from day 1 to 8. Mixed effects linear models assessed the change in biomarker values at days 1, 8, 22, 43, and 64; values beyond day 64 were not analyzed because of the small number of patients still on protocol. […]

[1] = after cabozantinib, baseline to day 64

SMILES: COc1cc2nccc(Oc3ccc(NC(=O)C4(C(=O)Nc5ccc(F)cc5)CC4)cc3)c2cc1OC [cabozantinib]
- CD3+ (lymphocytes), Median (Day 1 (baseline)): 34.73 % of WBC
- CD3 + CD8 − CD4 + CD25+, Median (Day 1 (baseline)): 0.66 % of WBC
- CD3 + CD8 − CD4 + CD25−, Median (Day 1 (baseline)): 11.41 % of WBC
- CD3 + CD8 − CD4+, Median (Day 1 (baseline)): 0.15 % of WBC
- CD3 + CD56+ (NKT cells), Median (Day 1 (baseline)): 0.77 % of WBC
- CD3 − CD56+ (NK cells), Median (Day 1 (baseline)): 5.84 % of WBC
- CD14+ (monocytes), Median (Day 1 (baseline)): 42.20 % of WBC
- CD34 + CD133+ cells, Median (Day 1 (baseline)): 0.17 % of WBC
- CD3+ (lymphocytes), Median (Day 8): 24.06 % of WBC
- CD3 + CD8 − CD4 + CD25+, Median (Day 8): 0.79 % of WBC
- CD3 + CD8 − CD4 + CD25−, Median (Day 8): 14.18 % of WBC
- CD3 + CD8 − CD4+, Median (Day 8): 0.17 % of WBC
- CD3 + CD56+ (NKT cells), Median (Day 8): 0.85 % of WBC
- CD3 − CD56+ (NK cells), Median (Day 8): 7.27 % of WBC
- CD14+ (monocytes), Median (Day 8): 31.44 % of WBC
- CD34 + CD133+ cells, Median (Day 8): 0.11 % of WBC
- CD3+ (lymphocytes), Median (Day 22): 33.56 % of WBC
- CD3 + CD8 − CD4 + CD25+, Median (Day 22): 0.59 % of WBC
- CD3 + CD8 − CD4 + CD25−, Median (Day 22): 16.41 % of WBC
- CD3 + CD8 − CD4+, Median (Day 22): 0.18 % of WBC
- CD3 + CD56+ (NKT cells), Median (Day 22): 0.54 % of WBC
- CD3 − CD56+ (NK cells), Median (Day 22): 8.51 % of WBC
- CD14+ (monocytes), Median (Day 22): 19.03 % of WBC
- CD34 + CD133+ cells, Median (Day 22): 0.12 % of WBC
- CD3+ (lymphocytes), Median (Day 43): 32.79 % of WBC
- CD3 + CD8 − CD4 + CD25+, Median (Day 43): 0.73 % of WBC
- CD3 + CD8 − CD4 + CD25−, Median (Day 43): 17.71 % of WBC
- CD3 + CD8 − CD4+, Median (Day 43): 0.19 % of WBC
- CD3 + CD56+ (NKT cells), Median (Day 43): 1.02 % of WBC
- CD3 − CD56+ (NK cells), Median (Day 43): 6.50 % of WBC
- CD14+ (monocytes), Median (Day 43): 24.79 % of WBC
- CD34 + CD133+ cells, Median (Day 43): 0.18 % of WBC
- CD3+ (lymphocytes), Median (Day 64): 30.99 % of WBC
- CD3 + CD8 − CD4 + CD25+, Median (Day 64): 0.61 % of WBC
- CD3 + CD8 − CD4 + CD25−, Median (Day 64): 15.29 % of WBC
- CD3 + CD8 − CD4+, Median (Day 64): 0.19 % of WBC
- CD3 + CD56+ (NKT cells), Median (Day 64): 0.98 % of WBC
- CD3 − CD56+ (NK cells), Median (Day 64): 8.13 % of WBC
- CD14+ (monocytes), Median (Day 64): 23.48 % of WBC
- CD34 + CD133+ cells, Median (Day 64): 0.11 % of WBC
- change in CD4+ cells (CD3+CD4+CD8− T) [1]: trend for increase; also recorded: nonsignificant trend toward increase
- change in CD14+ monocytes [1]: persistent decrease
- change in CD56+ NK cells (CD3−CD56+ NK lymphocytes) [1]: trend for increase; also recorded: nonsignificant trend toward increase
- change in circulating CD3+ cells [1]: significant increase; also recorded: persistent increase
- change in circulating CD8+ T cells (CD3+CD4−CD8+ T lymphocytes) [1]: significant increase
- change in fraction of CD3+CD56+ NKT cells (baseline to day 64): no significant changes
- change in fraction of CD4+CD25+ Tregs (baseline to day 64): no significant changes
- change in fraction of CD4+CD127+ memory T cells (baseline to day 64): no significant changes
- change in fraction of CD133+ progenitor/stem cells (baseline to day 64): no significant changes
- effect on circulating cell biomarkers (summary) (metastatic TNBC patients): systemic changes consistent with activation of the immune system
